{
  "source": "paper PMC4976367",
  "about": "“Dimethyl fumarate blocks pro-inflammatory cytokine production via inhibition of TLR induced M1 and K63 ubiquitin chain formation” (Scientific Reports, 2016)",
  "format_in_all_cases": "biochemical",
  "key": {"Ube2S": {"target": "T1, Ube2S (Homo sapiens, UniProt Q16763)", "T1 sequence (Q16763 1-222)": "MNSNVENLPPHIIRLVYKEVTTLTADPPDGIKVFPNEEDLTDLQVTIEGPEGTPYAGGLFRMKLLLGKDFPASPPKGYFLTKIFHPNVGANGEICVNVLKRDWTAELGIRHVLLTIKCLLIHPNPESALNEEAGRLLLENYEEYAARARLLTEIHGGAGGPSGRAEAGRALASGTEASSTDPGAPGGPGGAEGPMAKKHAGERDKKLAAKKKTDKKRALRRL", "T1 sequence (P22314 2-1058 partner)": "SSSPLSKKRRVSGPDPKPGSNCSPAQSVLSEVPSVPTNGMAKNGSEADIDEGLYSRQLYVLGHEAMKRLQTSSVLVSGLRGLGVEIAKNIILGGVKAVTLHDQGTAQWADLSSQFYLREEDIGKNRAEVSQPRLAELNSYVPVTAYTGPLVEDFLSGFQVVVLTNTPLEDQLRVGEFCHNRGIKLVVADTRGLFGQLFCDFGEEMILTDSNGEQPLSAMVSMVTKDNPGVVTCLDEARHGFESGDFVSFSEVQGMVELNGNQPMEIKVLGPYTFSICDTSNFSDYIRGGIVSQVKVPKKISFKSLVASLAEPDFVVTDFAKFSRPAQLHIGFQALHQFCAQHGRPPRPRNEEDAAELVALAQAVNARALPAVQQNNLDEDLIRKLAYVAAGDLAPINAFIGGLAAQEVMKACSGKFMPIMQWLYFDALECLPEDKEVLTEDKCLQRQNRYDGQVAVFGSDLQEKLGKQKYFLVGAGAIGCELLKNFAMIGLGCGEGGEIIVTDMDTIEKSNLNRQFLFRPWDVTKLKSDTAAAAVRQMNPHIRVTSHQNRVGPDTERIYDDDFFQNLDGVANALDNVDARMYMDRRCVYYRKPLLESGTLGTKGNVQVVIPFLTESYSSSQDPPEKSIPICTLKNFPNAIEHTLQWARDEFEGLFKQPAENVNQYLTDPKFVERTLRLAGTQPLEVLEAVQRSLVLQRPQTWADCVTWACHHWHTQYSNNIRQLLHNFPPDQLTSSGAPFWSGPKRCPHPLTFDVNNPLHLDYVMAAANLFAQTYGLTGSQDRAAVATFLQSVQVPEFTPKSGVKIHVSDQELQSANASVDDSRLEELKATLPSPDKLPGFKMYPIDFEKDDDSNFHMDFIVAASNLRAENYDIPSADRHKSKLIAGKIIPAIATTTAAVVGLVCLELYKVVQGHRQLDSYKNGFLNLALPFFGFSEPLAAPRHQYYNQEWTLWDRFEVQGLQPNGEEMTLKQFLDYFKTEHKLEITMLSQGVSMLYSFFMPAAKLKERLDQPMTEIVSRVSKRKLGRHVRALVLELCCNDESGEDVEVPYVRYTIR", "assay": "E2 ubiquitin loading assay, panel of […] E2s at two fixed DMF concentrations"}, "Ubc13": {"target": "T2, Ubc13 (Homo sapiens, UniProt P61088)", "T2 construct": "gene UBE2N; recombinant Ubc13", "T2 sequence (P61088 1-152)": "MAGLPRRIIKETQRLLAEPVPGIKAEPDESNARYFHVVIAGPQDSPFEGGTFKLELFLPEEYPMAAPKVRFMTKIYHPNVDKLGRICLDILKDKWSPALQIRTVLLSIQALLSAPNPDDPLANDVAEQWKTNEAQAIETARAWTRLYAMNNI", "assay": "MALDI-TOF intact mass shift (covalent adduct, +[…] Da); IC50 from E2 ubiquitin loading assay with purified UBE1 and E2"}, "Ube2R1": {"target": "T3, Ube2R1 (Homo sapiens, UniProt P49427)", "T3 construct": "gene CDC34", "T3 sequence (P49427 1-236)": "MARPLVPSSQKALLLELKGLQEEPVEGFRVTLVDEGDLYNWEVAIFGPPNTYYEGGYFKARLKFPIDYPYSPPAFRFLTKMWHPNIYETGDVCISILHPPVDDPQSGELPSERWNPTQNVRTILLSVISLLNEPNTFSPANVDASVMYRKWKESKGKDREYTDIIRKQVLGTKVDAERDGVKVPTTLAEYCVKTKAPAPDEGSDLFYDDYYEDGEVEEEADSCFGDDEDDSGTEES", "assay": "E2 ubiquitin loading assay, panel of […] E2s at two fixed DMF concentrations"}, "UbcH7": {"target": "T4, UbcH7 (Homo sapiens, UniProt P68036)", "T4 construct": "gene UBE2L3; recombinant UbcH7", "T4 sequence (P68036 whole entry, one chain of several)": "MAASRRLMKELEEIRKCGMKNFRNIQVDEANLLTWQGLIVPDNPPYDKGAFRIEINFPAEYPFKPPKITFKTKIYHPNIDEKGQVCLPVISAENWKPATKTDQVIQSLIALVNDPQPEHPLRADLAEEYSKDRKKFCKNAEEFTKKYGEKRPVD", "assay": "MALDI-TOF intact mass shift (covalent adducts, +[…] and +[…] Da); IC50 from E2 ubiquitin loading assay with purified UBE1 and E2"}, "Ube2W": {"target": "Ube2W (Homo sapiens, UniProt Q96B02)", "sequence (Q96B02 whole entry, one chain of several)": "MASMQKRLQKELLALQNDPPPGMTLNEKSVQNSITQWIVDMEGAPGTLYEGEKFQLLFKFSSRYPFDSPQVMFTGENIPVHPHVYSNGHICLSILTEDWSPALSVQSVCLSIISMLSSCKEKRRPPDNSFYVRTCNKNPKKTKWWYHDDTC", "assay": "E2 ubiquitin loading assay, panel of […] E2s at two fixed DMF concentrations"}, "Ube2T": {"target": "T5, Ube2T (Homo sapiens, UniProt Q9NPD8)", "T5 sequence (Q9NPD8 1-197)": "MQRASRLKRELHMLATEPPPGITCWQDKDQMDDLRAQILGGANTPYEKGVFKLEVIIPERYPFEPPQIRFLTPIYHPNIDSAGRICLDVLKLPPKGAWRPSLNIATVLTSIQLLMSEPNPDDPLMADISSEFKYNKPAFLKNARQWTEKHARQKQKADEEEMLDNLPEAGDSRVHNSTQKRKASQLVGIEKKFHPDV", "assay": "E2 ubiquitin loading assay, panel of […] E2s at two fixed DMF concentrations"}},
  "note": "Counter-ions that a name gives are not always drawn.",
  "data": [
    {"compound": "COC(=O)/C=C/C(=O)OC", "note": "[Dimethyl fumarate]", "values": [
      {"measurement": "E2 ubiquitin loading assay, panel of 24 E2s at two fixed DMF concentrations", "setting": "Ube2S", "value": "UbcH7, Ube2W, Ube2T, Ube2S and Ube2R1 being most strongly inhibited"},
      {"measurement": "IC50", "setting": "Ubc13", "value": "10 to 20", "unit": "µM"},
      {"measurement": "E2 ubiquitin loading assay, panel of 24 E2s at two fixed DMF concentrations", "setting": "Ube2R1", "value": "UbcH7, Ube2W, Ube2T, Ube2S and Ube2R1 being most strongly inhibited"},
      {"measurement": "IC50", "setting": "UbcH7", "value": "< 10", "unit": "µM"},
      {"measurement": "E2 ubiquitin loading assay, panel of 24 E2s at two fixed DMF concentrations", "setting": "Ube2W", "value": "UbcH7, Ube2W, Ube2T, Ube2S and Ube2R1 being most strongly inhibited"},
      {"measurement": "E2 ubiquitin loading assay, panel of 24 E2s at two fixed DMF concentrations", "setting": "Ube2T", "value": "UbcH7, Ube2W, Ube2T, Ube2S and Ube2R1 being most strongly inhibited"}
    ]}
  ]
}
